# Measurements taken from patent US7964623B2, “Tricyclic benzopyrane compound” (Nissan Chemical Industries Ltd., priority 2004, dated 2011).
# What was measured:
# atrium = experiment: Effects on the atrial effective refractory period (S1-S2 extrastimulus technique during bilateral vagal nerve stimulation) in anesthetized beagles; type: in vivo; conditions: intravenous, from 5 minutes after administration, basic cycle length 300 msec
# Method: Effects on the Effective Refractory Period
# Beagles were anesthetized with pentobarbital sodium and thoracotomy was done along the median line under a respirator and the incision was made on the pericardium to expose the heart. An electrocardiogram (ECG) was recorded using bipolar electrodes attached to the surface of the right atrial free wall, right atrial auricle, and right ventricular free wall. The vagal nerves were stimulated using an electrostimulation device with Nichrome wires inserted into the vagal nerves in the neck bilaterally. The conditions for electrostimulation to the vagal nerves were set such that the RR intervals on ECG were prolonged by about 100 msec compared with those before the stimulation was started.
# Atrial and ventricular effective refractory periods were determined by S1-S2 extrastimulus technique at basic cycle length of 300 msec during bilateral vagal nerve stimulation, using programmable electric stimulator. A train of 10 basic stimuli (S1) was followed by a premature extrastimulus (S2) at 2 times diastolic threshold.
# For evaluation of drug effects, the atrial and ventricular effective refractory periods were determined before drug administration, then respective compound was administrated intravenously at the dose of 0.3 mg/kg or 0.6 mg/kg, and the atrial and ventricular effective refractory periods were determined from 5 minutes after the administration.
# The results were shown as the prolongation time on the atrial and ventricular effective refractory periods, i.e. [effective refractory period after drug administration]−[effective refractory period before drug administration] (msec).
SMILES,Atrial Refractory Period (prolongation time on the atrial effective refractory period) (atrium; 0.3 mg/kg),also measured
"CC1(C)Oc2ccc3nc(C(N)=O)ccc3c2[C@@H](NCCc2ccccc2)[C@@H]1O (racemic) [Synthesis Example 11, (±)-trans-2-Hydroxy-3,3-dimethyl-1-[(2-phenylethyl)amino]-2,3-dihydro-1H-pyrano[3,2-f]quinoline-8-carboxamide]",,melting point: 197 to 199 °C
"CC1(C)Oc2cc3nccnc3cc2[C@H](NCCc2ccc(F)cc2)[C@H]1O.Cl (relative stereo) [Synthesis Example 61, (3R*,4S*)-9-{[2-(4-fluorophenyl)ethyl]amino}-7,7-dimethyl-8,9-dihydro-7H-pyrano[2,3-g]quinoxalin-8-ol hydrochloride]",20 ms,
"CC1(C)Oc2ccc3nc(C#N)ccc3c2[C@@H](NCCc2ccccc2)[C@@H]1O (racemic) [Synthesis Example 10, (±)-trans-2-Hydroxy-3,3-dimethyl-1-[(2-phenylethyl)amino]-2,3-dihydro-1H-pyrano[3,2-f]quinoline-8-carbonitrile]",,melting point: 93 to 96 °C
"Cc1cc(C(N)=O)nc2cc3c(cc12)OC(C)(C)[C@H](O)[C@H]3NCCc1ccccc1 (relative stereo) [Synthesis Example 15, (3R*,4S*)-3-hydroxy-2,2,9-trimethyl-4-[(2-phenylethyl)amino]-3,4-dihydro-2H-pyrano[2,3-g]quinoline-7-carboxamide]",,melting point: 168 to 169 °C
"CCCC(O)CN[C@H]1c2cc3nc(Cl)cc(C)c3cc2OC(C)(C)[C@@H]1O (relative stereo) [Synthesis Example 58, (3R*,4S*)-7-chloro-4-[(2-hydroxypentyl)amino]-2,2,9-trimethyl-3,4-dihydro-2H-pyrano[2,3-g]quinolin-3-ol]",28 ms,
"Cc1cc(Cl)nc2cc3c(cc12)OC(C)(C)[C@H](O)[C@H]3NCCc1ccc(Cl)cc1 (relative stereo) [Synthesis Example 25, (3R*,4S*)-7-chloro-4-{[2-(4-chlorophenyl)ethyl]amino}-2,2,9-trimethyl-3,4-dihydro-2H-pyrano[2,3-g]quinolin-3-ol]",27 ms,
"Cc1cnc2cc3c(cc2n1)OC(C)(C)[C@H](O)[C@H]3NCCc1ccccc1.O=C(O)/C=C\C(=O)O (relative stereo) [Synthesis Example 68, (3R*,4S*)-2,2,8-trimethyl-4-[(2-phenylethyl)amino]-3,4-dihydro-2H-pyrano[2,3-g]quinoxalin-3-ol 1 maleate]",,melting point: 189 to 192 °C (dec.)
"Cc1cc(Cl)nc2cc3c(cc12)OC(C)(C)[C@H](O)[C@H]3NCC(O)c1ccccc1 (relative stereo) [Synthesis Example 27, (3R*,4S*)-7-chloro-4-[(2-hydroxy-2-phenylethyl)amino]-2,2,9-trimethyl-3,4-dihydro-2H-pyrano[2,3-g]quinolin-3-ol]",32 ms,
"CC1(C)Oc2ccc3ncccc3c2C(NCCc2ccccc2)C1O (stereo not drawn) [Synthesis Example 17, (1R*,2R*)-3,3-dimethyl-1-[(2-phenylethyl)amino]-2,3-dihydro-1H-pyrano[3,2-f]quinolin-2-ol]",,melting point: 170 to 171 °C
"Cc1cc(Cl)nc2cc3c(cc12)OC(C)(C)[C@H](O)[C@H]3NCCc1cccnc1 (relative stereo) [Synthesis Example 41, (3R*,4S*)-7-chloro-2,2,9-trimethyl-4-{[2-(3-pyridyl)ethyl]amino}-3,4-dihydro-2H-pyrano[2,3-g]quinolin-3-ol]",31 ms,
"CN1C(=O)COc2cc3c(cc21)OC(C)(C)[C@H](O)[C@H]3NCCc1ccccc1.Cl (relative stereo) [Synthesis Example 73, (7R*,8S*)-7-hydroxy-4,6,6-trimethyl-8-(2-phanylethylamino)-4,6,7,8-tetrahydro-1,5-dioxa-4-aza-anthracene-3-one hydrochloride]",31 ms,
"CC1(C)Oc2cc3c(cc2C(NCCc2ccccc2)C1O)NC(=O)CO3 (stereo not shown) [Synthesis Example 74, 7-Hydroxy-6,6-dimethyl-8-(2-phenylethylamino)-7,8-dihydro-1H,6H-4,5-dioxa-1-aza-anthracene-2-one]",,Atrial Refractory Period (prolongation time on the atrial effective refractory period) (atrium; 0.6 mg/kg): 25 ms
"Cc1cc(Cl)nc2cc3c(cc12)OC(C)(C)[C@H](O)[C@H]3NCCc1ccccc1F (relative stereo) [Synthesis Example 24, (3R*,4S*)-7-chloro-4-{[2-(2-fluorophenyl)ethyl]amino}-2,2,9-trimethyl-3,4-dihydro-2H-pyrano[2,3-g]quinolin-3-ol]",23 ms,
"Cc1cc(Cl)nc2cc3c(cc12)OC(C)(C)[C@H](O)[C@H]3NCCc1ccc(N)cc1 (relative stereo) [Synthesis Example 26, (3R*,4S*)-4-{([2-(4-aminophenyl)ethyl]amino}-7-chloro-2,2,9-trimethyl-3,4-dihydro-2H-pyrano[2,3-g]quinolin-3-ol]",24 ms,
"Cc1cc(CO)nc2cc3c(cc12)OC(C)(C)[C@H](O)[C@H]3NCCc1ccccc1.O=C(O)/C=C\C(=O)O (relative stereo) [Synthesis Example 18, (3R*,4S*)-7-hydroxymethyl-2,2,9-trimethyl-4-[(2-phenylethyl)amino]-3,4-dihydro-2H-pyrano[2,3-g]quinolin-3-ol 1 maleate]",27 ms,
"Cc1ccc2cc3c(cc2n1)C(NCCc1ccccc1)C(O)C(C)(C)O3.O=C(O)/C=C\C(=O)O (racemic) [Synthesis Example 4, (±)-trans-2,2,7-Trimethyl-4-[(2-phenylethyl)amino]-3,4-dihydro-2H-pyrano[2,3-g]quinolin-3-ol 3/2 maleate]",,Atrial Refractory Period (prolongation time on the atrial effective refractory period) (atrium; 0.6 mg/kg): 30 ms
"Cc1cc(C#N)nc2cc3c(cc12)OC(C)(C)[C@H](O)[C@H]3NCCc1ccccc1.O=C(O)/C=C\C(=O)O (relative stereo) [Synthesis Example 14, (3R*,4S*)-3-hydroxy-2,2,9-trimethyl-4-[(2-phenylethyl)amino]-3,4-dihydro-2H-pyrano[2,3-g]quinoline-7-carbonitrile 1 maleate]",27 ms,
"CC1(C)Oc2cc3c(cc2[C@H](NCCc2ccccc2)[C@H]1O)OCC(=O)N3 (relative stereo) [Synthesis Example 71, (7R*,8S*)-7-hydroxy-6,6-dimethyl-8-(2-phenylethyl)amino]-4,6,7,8-tetrahydro-1,5-dioxa-4-aza-anthracene-3-one]",31 ms,
"Cc1cc(Cl)nc2cc3c(cc12)OC(C)(C)[C@H](O)[C@H]3NCCC1CCCC1 (relative stereo) [Synthesis Example 47, (3R*,4S*)-7-chloro-4-[2-(cyclopentylethyl)amino]-2,2,9-trimethyl-3,4-dihydro-2H-pyrano[2,3-g]quinolin-3-ol]",24 ms,
"CC1(C)Oc2cc3nccnc3cc2[C@H](NCCc2ccccc2)[C@H]1O.O=C(O)/C=C\C(=O)O (relative stereo) [Synthesis Example 59, (3R*,4S*)-7,7-dimethyl-9-[(2-phenylethyl)amino]-8,9-dihydro-7H-pyrano[2,3-g]quinoxalin-8-ol 1 maleate]",22 ms,
"Cc1cc(Cl)nc2cc3c(cc12)OC(C)(C)[C@H](O)[C@H]3NCCC1=CCCC1 (relative stereo) [Synthesis Example 48, (3R*,4S*)-7-chloro-4-[2-(1-cyclopentenylethyl)amino]-2,2,9-trimethyl-3,4-dihydro-2H-pyrano[2,3-g]quinolin-3-ol]",23 ms,
"CC1(C)Oc2cc3nccnc3cc2[C@H](NCCc2ccccc2F)[C@H]1O.Cl (relative stereo) [Synthesis Example 60, (3R*,4S*)-4-{[2-(2-fluorophenyl)ethyl]amino}-2,2-dimethyl-3,4-dihydro-2H-pyrano[2,3-g]quinoxalin-3-ol hydrochloride]",22 ms,
"Cc1cc(Cl)nc2cc3c(cc12)OC(C)(C)[C@H](O)[C@H]3NCCc1ccccc1.O=C(O)/C=C\C(=O)O (relative stereo) [Synthesis Example 19, (3R*,4S*)-7-chloro-2,2,9-trimethyl-4-[(2-phenylethyl)amino]-3,4-dihydro-2H-pyrano[2,3-g]quinolin-3-ol 1 maleate]",26 ms,
"CCCCCN[C@H]1c2cc3nc(Cl)cc(C)c3cc2OC(C)(C)[C@@H]1O.Cl (relative stereo) [Synthesis Example 52, (3R*,4S*)-7-chloro-2,2,9-trimethyl-4-(pentylamino)-3,4-dihydro-2H-pyrano[2,3-g]quinolin-3-ol hydrochloride]",28 ms,
"Cc1cc(Cl)nc2cc3c(cc12)OC(C)(C)[C@H](O)[C@H]3NCCc1ccc(F)cc1 (relative stereo) [Synthesis Example 23, (3R*,4S*)-7-chloro-4-{[2-(4-fluorophenyl)ethyl]amino}-2,2,9-trimethyl-3,4-dihydro-2H-pyrano[2,3-g]quinolin-3-ol]",22 ms,
